In assay [1] the target is T1, hTAS1R2 + hTAS1R3 H734A^5.47 (Homo sapiens, UniProt Q7RTX0+Q8TE23, H734A).
T1 construct: expressed in transfected cells; host or cells: HEK293T cells stably expressing G16Gust44
T1 sequence (Q8TE23 20-839): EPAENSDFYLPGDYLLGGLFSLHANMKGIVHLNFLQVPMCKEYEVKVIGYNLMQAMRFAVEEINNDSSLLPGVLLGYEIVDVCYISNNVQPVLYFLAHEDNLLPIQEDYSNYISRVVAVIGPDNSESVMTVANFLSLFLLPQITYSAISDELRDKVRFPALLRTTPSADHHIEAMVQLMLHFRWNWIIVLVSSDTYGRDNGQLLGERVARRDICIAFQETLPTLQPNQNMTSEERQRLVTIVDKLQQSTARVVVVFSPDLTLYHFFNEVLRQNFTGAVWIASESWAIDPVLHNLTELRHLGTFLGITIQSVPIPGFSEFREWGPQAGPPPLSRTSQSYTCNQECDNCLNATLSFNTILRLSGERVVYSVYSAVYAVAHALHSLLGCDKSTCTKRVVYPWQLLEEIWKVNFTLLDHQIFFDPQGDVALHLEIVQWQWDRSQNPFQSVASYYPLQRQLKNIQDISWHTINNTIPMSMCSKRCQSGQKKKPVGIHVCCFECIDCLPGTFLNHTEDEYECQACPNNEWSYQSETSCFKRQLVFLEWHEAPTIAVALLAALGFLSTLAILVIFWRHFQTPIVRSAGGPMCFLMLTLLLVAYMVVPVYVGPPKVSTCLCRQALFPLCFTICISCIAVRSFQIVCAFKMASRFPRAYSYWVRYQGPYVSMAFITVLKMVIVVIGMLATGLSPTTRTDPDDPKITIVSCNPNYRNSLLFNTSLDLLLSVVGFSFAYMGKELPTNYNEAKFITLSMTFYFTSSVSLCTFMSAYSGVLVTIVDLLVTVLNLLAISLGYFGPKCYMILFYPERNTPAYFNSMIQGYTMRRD
T1 sequence (Q7RTX0 21-852 H734A): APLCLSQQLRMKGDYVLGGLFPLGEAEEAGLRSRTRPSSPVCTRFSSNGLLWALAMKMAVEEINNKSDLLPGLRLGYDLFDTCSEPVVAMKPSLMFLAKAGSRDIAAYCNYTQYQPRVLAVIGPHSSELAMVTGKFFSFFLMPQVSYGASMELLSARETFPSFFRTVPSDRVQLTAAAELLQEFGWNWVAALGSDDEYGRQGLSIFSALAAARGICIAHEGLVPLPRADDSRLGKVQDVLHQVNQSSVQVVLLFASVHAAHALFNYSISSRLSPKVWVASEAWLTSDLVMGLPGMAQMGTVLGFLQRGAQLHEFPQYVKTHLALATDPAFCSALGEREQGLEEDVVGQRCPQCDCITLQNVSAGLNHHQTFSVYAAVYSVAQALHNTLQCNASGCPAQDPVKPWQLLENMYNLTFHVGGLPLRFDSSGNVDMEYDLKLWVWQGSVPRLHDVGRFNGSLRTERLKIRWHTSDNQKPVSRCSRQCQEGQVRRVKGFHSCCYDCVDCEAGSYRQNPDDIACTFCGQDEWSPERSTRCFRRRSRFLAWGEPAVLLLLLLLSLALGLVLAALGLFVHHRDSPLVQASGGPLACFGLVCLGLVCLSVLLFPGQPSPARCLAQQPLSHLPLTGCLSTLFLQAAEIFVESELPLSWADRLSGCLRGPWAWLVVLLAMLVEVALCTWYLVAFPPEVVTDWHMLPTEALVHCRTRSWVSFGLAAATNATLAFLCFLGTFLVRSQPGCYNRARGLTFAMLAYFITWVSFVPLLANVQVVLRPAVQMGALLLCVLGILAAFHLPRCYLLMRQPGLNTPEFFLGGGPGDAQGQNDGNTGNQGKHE
The assay can be described thus: Calcium response (FLIPR), hTAS1R3 mutant coexpressed with hTAS1R2. The format is cell-based. As to conditions: for receptor response: mutant H734A^5.47; for EC50: variant H734A^5.47, n.f. = no response to any tested sweetener. The procedure:
(§1) The cDNAs for TAS1Rs tagged at the C-terminus with the herpes simplex virus glycoprotein D (HSV) were transiently transfected into HEK293T cells stably expressing the chimeric G-protein subunit G16Gust44 [44] using Lipofectamine 2000 (Invitrogen, Carlsbad, CA) according to the manufacturer's protocol. 3–4 hours after transfection, DMEM was replaced by low-glucose DMEM supplemented with GlutaMAX and 10% dialyzed FBS (Invitrogen, Carlsbad, CA). 24 h post transfection, cells were loaded for 1 h with the calcium sensitive dye Fluo4-AM (2 μg/ml in DMEM, Molecular Probes, Carlsbad, CA). […] We monitored calcium mobilization following receptor stimulation with sweet tastants by an automated fluorometric imaging plate reader (FLIPR, Molecular Devices, Sunnyvale, CA). Compounds used as stimuli (Sigma-Aldrich, St. Louis, MO; Merck, Whitehouse Station, NJ) were dissolved in C1 solution. All data were collected from at least three independent experiments carried out in duplicate. The obtained calcium signals were corrected for the response of mock transfected cells and normalized to the fluorescence of cells prior to the application of the stimulus using ΔF/F = (F-F0)/F0.

Assay [2] deals with T2, hTAS1R2 + hTAS1R3 W775A^6.48 (Homo sapiens, UniProt Q7RTX0+Q8TE23, W775A).
T2 construct: expressed in transfected cells; host or cells: HEK293T cells stably expressing G16Gust44
T2 sequence (Q8TE23 20-839): T1 sequence (Q8TE23 20-839)
T2 sequence (Q7RTX0 21-852 W775A): T1 sequence (Q7RTX0 21-852 H734A) with A714H, W755A
Described as above. As to conditions: for EC50 / Emax: variant W775A^6.48; for EC50: (>) EC50 not calculable because saturation is not reached; for Emax: read-out: maximal signal (% of wt). The format is cell-based. The procedure: as §1

Each structure is given as a SMILES string. Substitutions are numbered along the chain they refer to. Where a SMILES comes first, the peptide text is derived from it. Bounds are passed on as bounds.

The EC50 is the concentration giving half of the maximal effect. Regarding `COc1ccc(CCC(=O)c2c(O)cc(O[C@@H]3O[C@H](CO)[C@@H](O)[C@H](O)[C@H]3O[C@@H]3O[C@@H](C)[C@H](O)[C@@H](O)[C@H]3O)cc2O)cc1O` [NHDC, neohesperidin dihydrochalcone], in assay [1], the receptor response result is “did not respond” and the EC50 entry is “n.f”. Also, in assay [2], the concentration giving a half-maximal response (EC50) is > 3000 µM and the Emax turned out to be 30 ± 41%.
As to `CC1=CC(=O)NS(=O)(=O)O1` [acesulfame K], the receptor response result in assay [1] is reported as “did not respond”.
For the molecule `COC(=O)[C@H](Cc1ccccc1)NC(=O)[C@@H](N)CC(=O)O` [aspartame] (HELM PEPTIDE1{D.F.[CO[*:1]]}$$$$V2.0), in assay [1], the receptor response entry is given as “did not respond” and the EC50 result was “n.f”. In assay [2], the EC50 was 1900 ± 200 µM and the Emax turned out to be 20 ± 30%.
On to `O=S(=O)(O)NC1CCCCC1` [cyclamate], for which the receptor response result in assay [1] is recorded as “did not respond”. In addition, in assay [2] (mutant W775A^6.48, any tested concentration), the receptor activation entry is on record as “could not be activated at any tested concentration”.

The record behind these values is paper PMC2099433, “The binding site for neohesperidin dihydrochalcone at the human sweet taste receptor” (BMC Structural Biology, 2007).
